Experimental data taken from ChEMBL document CHEMBL5344425, “Discovery of 5-(Pyrimidin-2-ylamino)-1H-indole-2-carboxamide Derivatives as Nur77 Modulators with Selective and Potent Activity Against Triple-Negative Breast Cancer” (J Med Chem, 2023).
Calls of active or inactive are those of the source. No cut-off for these calls is given here.

Legend:
[1] = test system: MDA-MB-231; assay: Induction of apoptosis in human MDA-MB-231 cells assessed as proportion of early apoptotic cells at 0.32 uM measured after 5 hrs by AnnexinV-FITC/PI staining based flow cytometry (reference value: 3.35%); type: functional
[2] = test system: MDA-MB-231; assay: Induction of apoptosis in human MDA-MB-231 cells assessed as increase in cleaved caspase-3 expression at 1 uM measured after 6 hrs by confocal microscopy; type: functional, cell-based
[3] = test system: MDA-MB-231; assay: Induction of apoptosis in human MDA-MB-231 cells transfected with Nur77 siRNA assessed as loss of mitochondrial membrane potential at 1 uM measured after 6 hrs by JC-1 staining based flow cytometry (reference value: 6.1%); type: functional
[4] = Toxicity in Zebra fish AB embryo assessed as induction of morphological abnormalities at 1.25 uM measured after 24 to 72 hrs; design: species or system Danio rerio; conditions: zebrafish, time 24-72 hrs
[5] = test system: HeLa; assay: Antiproliferative activity against human HeLa cells assessed as inhibition of cell growth measured after 24 hrs by MTT assay; type: functional, cell-based
[6] = test system: MCF7; assay: Antiproliferative activity against human MCF7 cells assessed as inhibition of cell growth measured after 24 hrs by MTT assay; type: functional, cell-based; conditions: MCF7, 24 h
[7] = test system: MDA-MB-231; assay: Induction of apoptosis in human MDA-MB-231 cells assessed as proportion of late apoptotic cells at 5 uM measured after 5 hrs by AnnexinV-FITC/PI staining based flow cytometry (reference value: 2.55%); type: functional
[8] = Cytotoxicity against human MCF-10A cells assessed as inhibition of cell growth measured after 24 hrs by MTT assay; type: toxicity, cell-based
[9] = Toxicity in BALB/c mouse xenografted with human MDA-MB-231 cells assessed as morphological changes in kidney at 10 mg/kg, ip qd for 16 days by Hematoxylin-Eosin staining based analysis; type: organism-based; conditions: in vivo, 384 h, time 16 day
[10] = Toxicity in BALB/c mouse xenografted with human MDA-MB-231 cells assessed as morphological changes in spleen at 10 mg/kg, ip qd for 16 days by Hematoxylin-Eosin staining based analysis; type: organism-based; conditions: in vivo, 384 h, time 16 day
[11] = test system: MDA-MB-231; assay: Induction of apoptosis in human MDA-MB-231 cells assessed as proportion of late apoptotic cells at 0.32 uM measured after 5 hrs by AnnexinV-FITC/PI staining based flow cytometry (reference value: 2.55%); type: functional
[12] = test system: MDA-MB-231; assay: Induction of apoptosis in human MDA-MB-231 cells assessed as PARP cleavage at 2.5 uM pretreated with PI3K and autophagy inhibitor, Wortmannin for 4 hrs followed by compound addition and measured after 6 hrs by western blot analysis; type: functional, cell-based
[13] = molecular target: T1, Nuclear receptor subfamily 4immunitygroup A member 1 (Homo sapiens, UniProt P22736); assay: Antagonist activity at Nur77 ligand binding domain (unknown origin) transfected in HEK293T cells cotransfected with pG5-Luc assessed as inhibition of receptor transcriptional activity measured after 12 hrs by luciferase reporter gene assay; type: cell-based; conditions: filed as antagonist, dose 0.5-2 µM
T1 sequence (P22736 whole entry, the tested form may be a part): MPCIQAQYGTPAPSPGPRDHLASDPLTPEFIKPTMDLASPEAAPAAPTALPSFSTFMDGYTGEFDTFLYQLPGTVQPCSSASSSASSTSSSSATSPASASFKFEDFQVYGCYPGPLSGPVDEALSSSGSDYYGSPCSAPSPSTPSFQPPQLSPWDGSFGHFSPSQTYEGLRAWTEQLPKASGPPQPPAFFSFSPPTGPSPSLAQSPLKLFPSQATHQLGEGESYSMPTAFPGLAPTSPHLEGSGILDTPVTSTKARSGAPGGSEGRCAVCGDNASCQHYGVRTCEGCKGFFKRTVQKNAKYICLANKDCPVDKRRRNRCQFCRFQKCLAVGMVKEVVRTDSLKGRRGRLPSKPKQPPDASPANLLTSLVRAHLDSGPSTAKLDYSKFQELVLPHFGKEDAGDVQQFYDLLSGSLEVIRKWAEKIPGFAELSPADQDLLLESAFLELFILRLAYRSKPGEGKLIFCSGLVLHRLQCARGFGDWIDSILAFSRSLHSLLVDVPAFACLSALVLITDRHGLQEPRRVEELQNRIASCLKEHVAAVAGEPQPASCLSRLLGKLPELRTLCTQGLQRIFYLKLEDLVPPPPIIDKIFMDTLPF

[14] = test system: HepG2; assay: Antiproliferative activity against human HepG2 cells assessed as inhibition of cell growth measured after 24 hrs by MTT assay; type: functional, cell-based; conditions: HepG2, 24 h
[15] = test system: MDA-MB-231; assay: Antitumor activity against human MDA-MB-231 cells xenografted in BALB/c mouse assessed as tumor weight at 10 mg/kg, ip qd for 16 days (reference value: 1.17 gms); type: functional; conditions: time 16 day
[16] = test system: SW-620; assay: Antiproliferative activity against human SW620 cells assessed as inhibition of cell growth measured after 24 hrs by MTT assay; type: functional, cell-based; conditions: SW-620, 24 h
[17] = test system: MDA-MB-231; assay: Induction of apoptosis in human MDA-MB-231 cells assessed as PARP cleavage at 2.5 uM pretreated with protein synthesis inhibitor, cycloheximide for 4 hrs followed by compound addition and measured after 6 hrs by western blot analysis; type: functional, cell-based
[18] = molecular target: T1, Nuclear receptor subfamily 4immunitygroup A member 1; assay: Binding affinity to His-tagged Nur77 ligand binding domain (unknown origin) by surface plasmon resonance assay
[19] = Toxicity in BALB/c mouse xenografted with human MDA-MB-231 cells assessed as body weight loss at 10 mg/kg, ip qd for 16 days; type: organism-based; conditions: in vivo, 384 h, time 16 day
[20] = molecular target: T1, Nuclear receptor subfamily 4immunitygroup A member 1; assay: Induction of degradation of Myc-tagged Nur77 (unknown origin) transfected in human MDA-MB-231 cells at 2 to 5 uM measured after 6 hrs by western blot analysis; type: cell-based; conditions: dose 2-5 µM
[21] = test system: MDA-MB-231; assay: Induction of apoptosis in human MDA-MB-231 cells transfected with ctr siRNA assessed as loss of mitochondrial membrane potential at 2 uM measured after 6 hrs by JC-1 staining based flow cytometry (reference value: 13.93%); type: functional
[22] = test system: MDA-MB-231; assay: Induction of apoptosis in human MDA-MB-231 cells assessed as proportion of early apoptotic cells at 0.63 uM measured after 5 hrs by AnnexinV-FITC/PI staining based flow cytometry (reference value: 3.35%); type: functional
[23] = test system: HCC1806; assay: Antiproliferative activity against human HCC1806 cells assessed as inhibition of cell growth measured after 24 hrs by MTT assay; type: functional, cell-based; conditions: HCC1806, 24 h
[24] = test system: MDA-MB-231; assay: Induction of apoptosis in human MDA-MB-231 cells assessed as PARP cleavage at 2 uM by western blot analysis; type: functional, cell-based; conditions: time 1-5 hrs, TDE = time-dependent effect
[25] = molecular target: T2, Retinoic acid receptor RXR-alpha (Homo sapiens) (UniProt P19793); assay: Antagonist activity at RXRalpha (unknown origin) transfected in HEK293T cells cotransfected with pG5-Luc assessed as inhibition of receptor transcriptional activity at 2 uM measured after 12 hrs by luciferase reporter gene assay; type: cell-based
T2 sequence (whole entry): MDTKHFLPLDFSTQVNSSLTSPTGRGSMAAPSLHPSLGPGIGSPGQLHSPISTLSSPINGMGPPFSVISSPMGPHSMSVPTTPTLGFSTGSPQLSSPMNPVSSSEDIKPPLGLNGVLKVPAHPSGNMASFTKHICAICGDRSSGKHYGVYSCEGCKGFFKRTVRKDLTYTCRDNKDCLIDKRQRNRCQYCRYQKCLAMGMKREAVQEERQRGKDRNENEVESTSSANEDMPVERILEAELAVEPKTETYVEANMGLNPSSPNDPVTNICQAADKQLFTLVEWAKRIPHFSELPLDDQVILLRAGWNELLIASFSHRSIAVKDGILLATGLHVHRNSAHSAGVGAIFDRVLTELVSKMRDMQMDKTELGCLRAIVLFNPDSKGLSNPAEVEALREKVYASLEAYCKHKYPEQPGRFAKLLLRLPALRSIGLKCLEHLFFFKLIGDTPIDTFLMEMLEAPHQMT

CCN(CC)CCCNC(=O)c1cc2cc(Nc3nccc(-c4sc(NC)nc4C)n3)ccc2[nH]1
Activity [1]: 9.81% | Activity [2]: Active | Activity [3]: 8.57% | Activity [4]: Toxic | IC50 [5]: 1990 nM | IC50 [6]: 720 nM | Activity [7]: 21.84% | IC50 at 24 h [8]: 48 µM | Activity [9]: Non-Toxic | Activity [10]: Non-Toxic | Activity [11]: 5.29% | Activity [12]: Active | inhibition [13]: Dose-Dependent Effect | IC50 [14]: 53.7 µM | Activity [15]: 0.06 g | IC50 [16]: 18.1 µM | Activity [17]: Active | Kd [18]: 91 nM | Activity [19]: Non-Toxic | Activity [20]: Active | Activity [21]: 68.69% | Activity [22]: 20.22% | IC50 [23]: 380 nM | Activity [24]: Tde | inhibition [25]: inactive
